Results reported in patent US5663182A, “Antipsychotic method” (priority 1996, dated 1997).
Counter-ions that a name gives are not always drawn.

How the values were obtained:
muscarinic receptors = experiment: 3H-oxotremorine-M binding assay; conditions: 3 nM 3H-oxotremorine-M, rat cerebral cortical membranes, 15 min 25° C.; read-out: Inhibition of 3H-Oxo
Protocol: Each compound was tested to determine the affinity of the compound for the muscarinic receptors using the following procedure.
For each in vitro binding, male Sprague-Dawley (Harlan Sprague-Dawley, Indianapolis, Ind.) rats weighing from about 100 to about 150 grams each were sacrificed by decapitation. The brains were quickly removed and the cerebral cortex were dissected from the brain. The cerebral cortex tissue was homogenized in 10 volumes of 0.32 M sucrose and […] about 10 minutes at about 1000 x g. The supernatant was centrifuged at about 12,000 x g for about 10 minutes and the resulting pellet was resuspended in 20 mM tris-Cl, pH 7.4. The resuspended pellet was centrifuged again for about 10 minutes at about 50,000 x g. The resulting homogenate was preincubated for about 10 minutes at about 25° C. and centrifuged again for about 10 minutes at about 50,000 x g. The pellet was resuspended at 1 gram of pellet per 3 ml of buffer and frozen at about -80° C. until used.
The aforementioned homogenates mixture was incubated for about 15 minutes at about 25° C. and then the homogenates were filtered through glass filters (Whatman, GF/C) with vacuum. The filters were washed 3 times with about 2 ml of cold tris-Cl buffer, and placed in scintillation vials containing about 10 ml of scintillation fluid (Ready Protein+, Beckman, Fullerton, Calif.). Radioactivity trapped on the filters was determined by liquid scintillation spectrometry. Nonspecific binding was determined using 1 μM atropine. […] DeLean, A. et al. Am.

Rats = experiment: Conditioned avoidance behavior in rats; format: in vivo, rat; conditions: screening dose 3.0 mg/kg s.c. 30 min before session
Text: In a conditioned avoidance test, animals learn to respond during a conditioned stimulus in order to avoid mild shock presentation. A response during the conditioned stimulus is termed an avoidance respone, a response during shock is termed an escape response; a response failure is when the animal fails to respond during either the conditioned stimlus or the shock presentation and is indicative of motor impairment. […] Antipsychotic drugs decrease the percentage of avoidance responses without interfering with the ability of the animal to respond since the animals do emit escape responses. The percentage of response failures is considered a measure of motor impairment.
Rats were required to press a response lever in an experimental chamber in order to avoid or escape foot-shock. Each experimental session consisted of 50 trials. During each trial, the chamber was illuminated and a tone presented for a maximum of 10 sec. A response during the tone immediately terminated the tone and the houselight, ending the trial. In the absence of a response during the tone alone, tone+foot-shock (2.0 mA) was presented for a maximum of 10 sec. A response during shock presentation immediately terminated the shock, the tone and the houselight, ending the trial.
For drug screening, a dose of 3.0 mg/kg was administered s.c. 30 min before the start of the experimental session.

[1] = test system: psychiatric patients suffering from schizophrenia; conditions: cited from earlier work

Compound | IC50 (muscarinic receptors) | Conditioned Avoidance % Avoidance Responses (Rats) | other results
N#CCSc1nsnc1C1CN2CCC1CC2.O=C(O)C(=O)O (centres unmarked) [Compound 103, 3-(3-Cyanomethylthio-1,2,5-thiadiazol-4-yl)-1-azabicyclo[2.2.2]octane oxalate] | 2.7 nM | 51% | 
O=C(O)/C=C/C(=O)O.c1csc(CCCSc2nsnc2C2CN3CCC2CC3)c1 (centres unmarked) [Compound 104, 3-(3-(3-(2-Thienyl)propylthio)-1,2,5-thiadiazol-4-yl)-1-azabicyclo[2.2.2]octane fumarate] | 2.6 nM | 24% | 
Cn1nnnc1SCCCCSc1nsnc1C1CN2CCC1CC2 (centres unmarked) [Compound 106, oxalate] | 2.8 nM | 55% | 
Cc1nnc(SCCCCSc2nsnc2C2CN3CCC2CC3)s1 (centres unmarked) [Compound 107, oxalate] | 1 nM | 52% | 
CSc1nsnc1C1CN2CCC1CC2.O=C(O)C(=O)O (centres unmarked) [Compound 131, 3-(3-Methylthio-1,2,5-thiadiazol-4-yl)-1-azabicyclo[2.2.2]octane oxalate] | 2.8 nM | 53% | 
CC(C)CCCSc1nsnc1[C@H]1CN2CCC[C@H]1C2 [Compound 157, (+)-Exo-(5R,6R)-6-(3-isohexylthio-1,2,5-thiadiazol-4-yl)-1-azabicyclo[3.2.1]-octane (+) L-tartrate] | 10 nM | 12% | 
CC(C)CCCSc1nsnc1[C@@H]1CN2CCC[C@@H]1C2 [Compound 158, (-)-Exo-6-(3-isohexylthio-1,2,5-thiadiazol-4-yl)-1-azabicyclo[3.2.1]octane oxalate] | 10 nM | 47% | 
CN1CCN(C2=Nc3cc(Cl)ccc3Nc3ccccc32)CC1 [clozapine] |  |  | agranulocytosis ([1]; reported for clinical use): cause agranulocytosis in some patients
Cc1cc2c(s1)Nc1ccc(F)cc1N=C2N1CCN(C)CC1 [flumezapine, 7-fluoro-2-methyl-10-(4-methyl-1-piperazinyl)-4H-thieno[2,3-b][1,5]-benzodiazepine] |  |  | incidence of raised enzyme levels (CPK, SGOT, SGPT) in treated patients ([1]; 17 patients treated, clinical trial terminated): unacceptably high incidence of raised enzyme levels
O=C(CCCN1CCC(O)(c2ccc(Cl)cc2)CC1)c1ccc(F)cc1 [haloperidol] |  |  | extra pyramidal symptoms ([1]; reported for clinical use): high incidence of extra pyramidal symptoms
